Results on seven compounds are retold here after US12624019B2, “Indazole derivative, and preparation method therefor and use thereof” (Leadingtac Pharmaceutical (Shaoxing) Co., Ltd., priority 2020, dated 2026).

The target of data set [1] is T1, IRAK4 kinase protein in THP-1 cells (Homo sapiens, UniProt Q9NWZ3).
T1 construct: endogenous in cells; host or cells: THP-1 cells
T1 sequence (Q9NWZ3 1-460): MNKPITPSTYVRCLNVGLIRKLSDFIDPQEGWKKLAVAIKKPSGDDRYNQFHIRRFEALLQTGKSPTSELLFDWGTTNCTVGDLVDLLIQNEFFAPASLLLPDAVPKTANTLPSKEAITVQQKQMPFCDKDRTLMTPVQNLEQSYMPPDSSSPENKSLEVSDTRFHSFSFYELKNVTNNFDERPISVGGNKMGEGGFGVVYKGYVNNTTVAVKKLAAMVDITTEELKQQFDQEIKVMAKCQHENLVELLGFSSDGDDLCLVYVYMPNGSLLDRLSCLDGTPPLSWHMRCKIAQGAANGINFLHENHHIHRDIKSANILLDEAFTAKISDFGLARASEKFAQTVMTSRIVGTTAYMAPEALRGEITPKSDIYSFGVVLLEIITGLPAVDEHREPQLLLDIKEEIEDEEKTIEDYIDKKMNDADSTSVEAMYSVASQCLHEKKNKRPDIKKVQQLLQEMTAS
Put plainly: Degradation of IRAK4 in THP-1 cells by Western Blot. In kind it is cell-based. Conditions: 24 hours; for Dmax / DC50: IRAK4 degradation in THP-1 cells; for Dmax: read-out: WB Dmax; for WB D(%) (300 nM) / WB D(%) (1000 nM): degradation percentage of IRAK4 in THP-1 cells; for WB D(%) (300 nM): compound 300 nM; for WB D(%) (1000 nM): compound 1000 nM; for DC50: read-out: WB DC50. As for the experimental part: Each well of the 24-well cell culture plate was inoculated with 0.95 mL THP-1 cells (stem cell bank of Chinese academy of sciences) with a cell density of 5×10^5 cells/well. The cell plate was placed in a 5% carbon dioxide incubator and cultured overnight at 37° C., then 50 μL compound in dimethyl sulfoxide was added. The final concentration of the compound was in the range of 1-3000 nM. After continuous cultivation for 24 hours, the cells were collected into a 1.5 mL centrifuge tube, centrifuged at 1000 rpm and 4° C. for 5 minutes. Cell precipitation was washed twice with 1×DPBS, resuspended cells were lysed with 200 μL lysate (cell lysate was Western and IP cell lysate (Beyotime), supplemented with 1 mM mixture of phenylmethylsulfonyl fluoride and protease inhibitor (Beyotime)), left on ice for 30 minutes, then centrifuged at 14000 g at 4° C. for 10 minutes, and the supernatant was taken to detect IRAK4 protein level by Western blot.
The total protein concentration in the supernatant of cell lysis was determined by BCA protein quantitative kit (Tiangen). According to the concentration of total protein detected by BCA, the supernatant was adjusted to […] with PBS and 5×SDS-PAGE protein loading buffer (Beyotime), bathed in water at 100° C. for 10 minutes, then placed in ice bath for 5 minutes, centrifuged at 14000 g and 4° C. for 5 minutes, and then collected as WB loading sample. Prefabricated glue (KeyGEN) was used for protein electrophoresis with a loading amount of 10 μL (total protein 2 μg). After Tris-MOPS-SDS electrophoresis solution (Adamas), 120V constant pressure electrophoresis was performed. After electrophoresis, the protein on the adhesive strip was transferred to PVDF membrane with a constant current of […] for 50 minutes. After the membrane was transferred, the membrane was added in 1×QuickBlock blocking buffer (Beyotime) and incubated for 30 minutes at room temperature. After blocking, PVDF membranes were incubated with IRAK4 primary antibody (Abcam) overnight at 4°, the membranes were washed with TBST buffer (2.4 g Tris, 8.8 g NaCl, 1.5 mL Tween 20, pH adjusted to 7.4, constant volume to 1 L) for 30 minutes, incubated with secondary antibody (Abcam) for 2 hours at room temperature, finally incubated with Clarity Western ECL Substrate (BIO-RAD) for 5 minutes for luminescence development, chemiluminescence imaging system (Clinx, chemiScope 6200 Touch) was used for development and protein mapping photography. The protein map was analyzed by Clinx chemiluminescence analysis software for grayscale values. Using the formula: grayscale correction value=(target protein grayscale value/corresponding internal reference grayscale value)×[…], the grayscale correction value of each sample was calculated. The degradation rate was calculated by comparing with the grayscale correction value of the control group. Furthermore, DC50 and Dmax values of the compound were obtained by the nonlinear curve fitting with the logarithmic concentration-inhibition rate by GraphPad Prism 7.

The target of a further data set is T2, IRAK4 kinase (Homo sapiens, UniProt Q9NWZ3).
T2 sequence (Q9NWZ3 1-460): T1 sequence (Q9NWZ3 1-460)
Put plainly: IRAK4 kinase activity test (KinEASE-STK HTRF kit). The class given is biochemical. Conditions: IRAK4 kinase inhibition, 7 μM ATP, 37° C. 120 min. As for the experimental part: KinEASE-STK Si serine/threonine kinase kit (Cisbio) was used to detect the inhibitory effect of the compound on IRAK4 kinase activity. The specific method was: the compound was dissolved in dimethyl sulfoxide, and then it was diluted with the buffer solution of the kit by equal gradient to make the final concentration range of the tested compound in the reaction system 10000 nM-0.038 nM, then 2.5 nM kinase, 1 μM biotinylated polypeptide substrate and 7 μM adenosine triphosphate (ATP) were added in sequence and incubated at 37° C. for 120 min. Subsequently, anti-phosphorylated serine/threonine antibody coupled with europium element compound and modified XL665 streptavidin were added to the reaction system to terminate the reaction. After incubating at room temperature for 1 h, the fluorescence intensity of each well at the emission wavelength of 620 nm and 665 nm and the excitation wavelength of 337 nm was determined in HTRF mode on the microplate reader EnVision (PerkinElmer), the ratio value was calculated using the formula Ratio=(665 nm/620 nm)×10^4. By comparing with the fluorescence intensity ratio of the control group, the inhibition rate of the compound at each concentration was calculated, and then the IC50 value of the compound was obtained by fitting the nonlinear curve with the logarithmic concentration-inhibition rate by GraphPad Prism 7.

Data set [2] can be described thus: Pharmacokinetic study in mice. The class given is in vivo, SD mice. Conditions: for AUC(0-t) / bioavailability / Cmax: male, SD, mouse, plasma; for bioavailability: gavage 100 mg/kg vs intravenous 1 mg/kg. As for the experimental part: The following experimental scheme was used to study the pharmacokinetic behavior of the compound of the present invention in mice and evaluate its pharmacokinetic characteristics.
Experimental scheme: 3 healthy SD mice, male, weighing […], were given 100 mg/kg compound by gavage with a volume of 10 mL/kg, prepared with […] (w/v). Before the test, they were fasted for 12 hours and freely drank water. Food was uniformly consumed 4 h after administration.
Three healthy SD mice, male, weighing […], were given 1 mg/kg compound intravenously with a volume of 5 mL/kg, prepared with 5% DMSO/15% solutol %80% PBS (w/v). Before the test, they were fasted for 12 hours and freely drank water. Food was uniformly consumed 4 h after administration.
0.1 mL of venous blood was taken through the submaxillary venous plexus of mice at 0.08 h, 0.25 h, 0.5 h, 1 h, 2 h, 4 h, 8 h, 24 h after gavage administration and 0.08 h, 0.25 h, 0.5 h, 1 h, 2 h, 4 h, 8 h, 24 h after intravenous administration, placed in a heparin test tube, centrifuged at 11000 rpm for 5 min, and plasma was separated, the concentration of compounds in plasma was determined by liquid chromatography-tandem mass spectrometry.

The mark [3] stands for this setting: po, gavage administration 100 mg/kg.

`COc1cc2nn(C3CCN(CCOCCOc4ccc5c(c4)C(=O)N(C4CCC(=O)NC4=O)C5=O)CC3)cc2cc1NC(=O)c1cccc(C(F)(F)F)n1` (stereo not drawn) [Control group 1, N-(2-(1-(2-(2-((2-(2,6-dioxopiperidin-3-yl)-1,3-dioxoisoindolin-5-yl)oxy)ethoxy)ethyl)piperidin-4-yl)-6-methoxy-2H-indazol-5-yl)-6-(trifluoromethyl) pyridinecarboxamide, reference compound]: in data set [1], the maximal degradation (Dmax) stood at 73.9%, the “WB D(%) (300 nM)” value was determined as 73.9% and the “WB D(%) (1000 nM)” value stood at 65.1%.
Take `COc1cc2nn(C3CCN(CCC4CCN(c5ccc6c(c5)C(=O)N(C5CCC(=O)NC5=O)C6=O)CC4)CC3)cc2cc1NC(=O)c1cccc(C(F)(F)F)n1` (stereo not drawn) [Example 1, N-(2-(1-(2-(1-(2-(2,6-dioxopiperidin-3-yl)-1,3-dioxoisoindolin-5-yl)piperidin-4-yl)ethyl)piperidin-4-yl)-6-methoxy-2H-indazol-5-yl)-6-(trifluoromethyl) pyridinecarboxamide]: in data set [1], the DC50 was determined as 25.1 nM, the Dmax is 98.8%, the “WB D(%) (300 nM)” value is on record as 99.4% and the “WB D(%) (1000 nM)” value was 99.8%. For the same compound, the IC50 against IRAK4 kinase was found to be 48.6 nM.
Regarding `COc1cc2nn(C3CCN(CC4CCN(c5ccc6c(c5)C(=O)N(C5CCC(=O)NC5=O)C6=O)CC4)CC3)cc2cc1NC(=O)c1cccc(C(F)(F)F)n1` (stereo not drawn) [Example 2, N-(2-(1-((1-(2-(2,6-dioxopiperidin-3-yl)-1,3-dioxoisoindolin-5-yl)piperidin-4-yl)methyl)piperidin-4-yl)-6-methoxy-2H-indazol-5-yl)-6-(trifluoromethyl) pyridinecarboxamide], in data set [1], the DC50 stood at 15.7 nM, the Dmax is 90.5%, the “WB D(%) (300 nM)” value was found to be 90.5% and the “WB D(%) (1000 nM)” value stood at 86.5%. For the same compound, the IC50 on IRAK4 kinase was found to be 92.7 nM. Also, in data set [2] (intravenous injection 1 mg/kg), the CL_pred amounted to 8.3 mL/min/kg, the Vss_pred worked out at 3.3 L/kg and the AUC(0-t) was found to be 1920 ng·h/mL. The compound also gave a bioavailability in data set [2] (po) of 22.3%. Besides, in data set [2] (setting [3]), the AUC(0-t) was 22400 ng·h/mL and the peak level (Cmax) was 1230 ng/mL.
`COc1cc2nn(C3CCN(CCN4CCN(c5ccc6c(c5)C(=O)N(C5CCC(=O)NC5=O)C6=O)CC4)CC3)cc2cc1NC(=O)c1cccc(C(F)(F)F)n1` (stereo not drawn) [Example 3, N-(2-(1-(2-(4-(2-(2,6-dioxopiperidin-3-yl)-1,3-dioxoisoindolin-5-yl)piperazin-1-yl)ethyl)piperidin-4-yl)-6-methoxy-2H-indazol-5-yl)-6-(trifluoromethyl) pyridinecarboxamide]: in data set [1], the DC50 was 9.3 nM, the maximal degradation (Dmax) stood at 97.7%, the “WB D(%) (300 nM)” value worked out at 96.7% and the “WB D(%) (1000 nM)” value is listed as 96.4%. Moreover, on IRAK4 kinase, the IC50 is 56.7 nM.
Take `CC(C)(O)c1cc2nn(C3CCN(CC4CCN(c5ccc6c(c5)C(=O)N(C5CCC(=O)NC5=O)C6=O)CC4)CC3)cc2cc1NC(=O)c1cccc(C(F)(F)F)n1` (stereo not drawn) [Example 7, N-(2-(1-((1-(2-(2,6-dioxopiperidin-3-yl)-1,3-dioxoisoindolin-5-yl)piperidin-4-yl)methyl)piperidin-4-yl)-6-(2-hydroxyprop-2-yl)-2H-indazol-5-yl)-6-(trifluoromethyl) pyridinecarboxamide]: in data set [1], the DC50 came out at 10.6 nM, the Dmax came to 80.2%, the “WB D(%) (300 nM)” value was 82.9% and the “WB D(%) (1000 nM)” value was 79.6%. In addition, the IC50 on IRAK4 kinase was found to be 48 nM. In data set [2] (intravenous injection 1 mg/kg), this compound came in with a CL_pred of 5 mL/min/kg, a Vss_pred of 2.2 L/kg and an AUC(0-t) of 3110 ng·h/mL. This compound gave a bioavailability in data set [2] (po) of 13.4%. In data set [2] (setting [3]), this compound showed an AUC(0-t) of 41600 ng·h/mL and a Cmax of 3260 ng/mL.
Take `CC(C)(O)c1cc2nn(C3CCN(CC(C)(C)N4CCN(c5ccc6c(c5)C(=O)N(C5CCC(=O)NC5=O)C6=O)CC4)CC3)cc2cc1NC(=O)c1cccc(C(F)(F)F)n1` (stereo not drawn) [Example 9]: in data set [1], the DC50 worked out at 12.5 nM, the Dmax stood at 79.1%, the “WB D(%) (300 nM)” value worked out at 81.1% and the “WB D(%) (1000 nM)” value is listed as 74.4%. Moreover, the IC50 against IRAK4 kinase was 32.7 nM.
Turning to `CC(C)(O)c1cc2nn(C3CCN(CCC4CCC5(CC4)CCN(c4ccc6c(c4)C(=O)N(C4CCC(=O)NC4=O)C6=O)CC5)CC3)cc2cc1NC(=O)c1cccc(C(F)(F)F)n1` (stereo not drawn) [Example 12, N-(2-(1-(2-(3-(2-(2,6-dioxopiperidin-3-yl)-1,3-dioxoisoindolin-5-yl)-3-azaspiro[5.5]undec-9-yl)ethyl)piperidin-4-yl)-6-(2-hydroxyprop-2-yl)-2H-indazol-5-yl)-6-(trifluoromethyl) pyridinecarboxamide], in data set [1], the DC50 came out at 18.3 nM, the Dmax amounted to 99.8%, the “WB D(%) (300 nM)” value amounted to 97.4% and the “WB D(%) (1000 nM)” value came to 97.9%. Also, on IRAK4 kinase, the midpoint of inhibition, the IC50, lay at 60.9 nM.
